Where a SMILES comes first, the peptide text is derived from it. [ ]: non-standard residue; d: D form. The star is where a group is joined. X1 = O=C(c1ccc(-c2cc(-c3ccccn3)nc(-c3ccccn3)c2)cc1)*; Ahx = NCCCCCC(=O)O
Legend:
A549 cells [1] = experiment: Confocal laser scanning microscopy uptake study in live A549 cells; assay type: cell-based; conditions: CLSM; for Cellular uptake / membrane permeation: live A549 cells, 24 h, 37 °C
Method: (§1) Two cell lines were studied: an adherent mammalian cell line, Chinese hamster ovarian (CHO–K1), and a lung carcinoma cancer cell line (A549). Dulbecco’s modified Eagle’s medium (DMEM)/Hams F-12 was used for CHO cells and DMEM for A549 cells. Both media were supplemented with 10% FBS and 1% penicillin–streptomycin. The cells were grown at 37 °C with 5% CO2 and sub-cultured at 90% confluency.
(§2) Uptake studies were carried out for A549 and CHO cell lines. Cells were seeded at 1.5 × 10^5 cells in 35 mm glass-bottom culture dishes (Ibidi, Germany). Cells were allowed to grow for 24 h at 37 °C with 5% CO2. […] The dye/media solution was removed, and cells were washed twice with supplemented phosphate-buffered saline (PBS, 1.1 mM MgCl2 and 0.9 mM CaCl2). Cells were directly imaged using a Leica TSP DMi8 confocal microscope (63× oil immersion objective lens unless stated otherwise) with a heated stage at 37 °C.
(§3) [Os-(Rn)2]^x+ (n = 4 and 8; x = 10^+ and 18^+) was excited using a 490 nm white light laser, and the emission range was set to be between 650 and 800 nm. DRAQ7, a nuclear staining dye, was added (3 μM) to distinguish intact live cells from permeabilized/dead cells. The 633 nm laser was used to excite DRAQ7, and emission was collected between 635 and 750 nm. For co-localization studies, MitoTracker Deep Red (100 nM) and LysoTracker Green (50 nM) were used to selectively stain mitochondria and lysosomes, respectively. MitoTracker Deep Red was excited at 644 nm and emission was collected between 655 and 720 nm, and LysoTracker Green was excited at 504 nm and emission was collected at 511 nm.

CHO cells [2] = experiment: Confocal laser scanning microscopy uptake study in live CHO cells; assay type: cell-based, Chinese hamster; conditions: CLSM; for Cellular uptake / membrane permeation: live CHO cells, 24 h, 37 °C
Method: as §1, §2, §3

HPAC spheroids [3] = experiment: Confocal imaging of penetration into live HPAC multicellular tumor spheroids; assay type: cell-based, human; conditions: for Spheroid penetration / accumulation: 100 μM, 48 h, confocal microscopy, no permeant
Method: The human pancreatic cancer cell line (HPAC) was cultured in Gibco Roswell Park Memorial Institute medium supplemented with 5% FBS at 37 °C with 5% CO2. HPAC cells were seeded at 2.5 × 10^3 cells/well of 96-well round-bottom plates pre-coated with poly-Hema (poly-2-hydroxyethyl methacrylate, Sigma). Cells were allowed to be compact and form 3D spheroid structures after 72 h.
Spheroids were treated with [Os-(R4)2]^10+ at 30 μM for 24 h and 100 μM for 24 and 48 h. Control spheroids were treated with the parent complex [Os(tpybenzCOOH)2]^2+ and [Os-(R8)2]^18+ at 100 μM for 48 h. Non-treated spheroids were also prepared as a negative control. Spheroids were co-stained with DAPI at 10 μM for 90 min. Each spheroid was collected individually and embedded in collagen in eight-well chamber slides, incubated for 90 min, and observed under confocal microscopy.
For imaging, HPAC spheroids were plated in collagen-treated eight-well chamber slides. HPAC spheroids were directly imaged from the eight-well chamber using a Leica TSP DMi8 confocal microscope (10× dry and 40× oil immersion objective). Z-scanning was used to acquire images across the z-axis of the spheroid sample. On average, 45–50 images were acquired at approximately 5 μm apart. 3D Z-stack images were used for spheroid reconstructions and 2D projection images are also reported. The Os(II) parent complex and bioconjugates were excited using a 490 nm white light laser, and the emission range was set to be between 650 and 800 nm (a false red color was used for the Os(II) channel). DAPI was excited at 405 nm, and emission was collected between 423 and 580 nm.

cell membrane = conditions: parent complex without peptide; as reported previously; cited from earlier work
Method: Uptake of the Os(II) bis-octaarginine conjugate was studied in live A549 lung carcinoma and a non-cancerous CHO cell line. […] The conjugate remained as impermeable to the cell membrane as the parent Os(II) complex at 30 μM/24 h and 100 μM/24 h (Figure S12).

A549 cells [4] = experiment: DRAQ7 co-staining for damaged/dead cells, A549; assay type: cell-based
Method: (§4) Uptake studies were carried out for A549 and CHO cell lines. Cells were seeded at 1.5 × 10^5 cells in 35 mm glass-bottom culture dishes (Ibidi, Germany). Cells were allowed to grow for 24 h at 37 °C with 5% CO2. The growth medium was removed, and a specific concentration of [Os-(Rn)2]^x+ (n = 4 and 8; x = 10^+ and 18^+) was added and allowed to incubate for 24 and 48 h at 37 °C with 5% CO2 in the dark. The dye/media solution was removed, and cells were washed twice with supplemented phosphate-buffered saline (PBS, 1.1 mM MgCl2 and 0.9 mM CaCl2). Cells were directly imaged using a Leica TSP DMi8 confocal microscope (63× oil immersion objective lens unless stated otherwise) with a heated stage at 37 °C.
as §3

CHO cells [5] = experiment: DRAQ7 co-staining for damaged/dead cells, CHO; assay type: cell-based, Chinese hamster; conditions: 30 μM, 24 h
Method: as §4, §3

A549 cells [6] = experiment: Phototoxicity under continuous 490 nm irradiation with DRAQ7; assay type: cell-based; conditions: A549 cells pretreated 30 μM/24 h, DRAQ7, continuous 490 nm irradiation 0.84 μW/cm^2, 3 h
Method: DRAQ7 was added to live A549 cells treated with [Os-(R4)2]^10+ (30 μM/24 h). A group of cells were selected for continuous irradiation using 490 nm excitation (0.84 μW/cm^2). Emission was collected between 650 and 800 nm for [Os-(R4)2]^10+. The 633 nm laser was used to excite DRAQ7, and emission was collected between 635 and 750 nm. This was repeated for an untreated control sample exposed to continuous irradiation and stained with DRAQ7.

HPAC spheroids [7] = experiment: 3D spheroid viability, Alamar Blue; assay type: cell-based, human; conditions: 100 μM, 24 and 48 h, relative to untreated controls, n=2
Method: The 3D spheroid viability was evaluated using Alamar Blue. Briefly, 2.5 × 10^3 cells were seeded in each well of a 96-well round-bottom plate pre-coated with poly-Hema. The cells were allowed to grow and form spheroids for 72 h. The spheroids were then treated with [Os-(R4)2]^10+ at 100 μM for 24 and 48 h. The Alamar Blue reagent at a concentration of 10% was added to each well and incubated for 5 h at 37 °C. Fluorescence was measured at 535/590 excitation/emission wavelengths on a plate reader (Biotek) using Gen4 software. Background fluorescence was measured by using a blank consisting of medium only. Percentage viability was calculated relative to untreated controls.

SMILES | Cellular uptake / membrane permeation (A549 cells [1]; 100 μM) | Cellular uptake / membrane permeation (CHO cells [2]; 100 μM) | Spheroid penetration / accumulation (HPAC spheroids [3]) | Cell membrane permeability (cell membrane) | Cell permeation at 4 °C (A549 cells [1]; A549 cells, 4 °C, 30 μM/24 h) | Cellular uptake / membrane permeation (A549 cells [1]; 30 μM, dark, exc 490 nm, em 650-800 nm) | Cell permeation (CHO cells [2]; CHO cells, 30 μM/24 h) | Cellular uptake / membrane permeation (CHO cells [2]; 30 μM, dark) | Cell viability by DRAQ7 co-staining (A549 cells [4]; 30 μM, 24 h and 48 h) | Cytotoxicity by DRAQ7 co-staining (A549 cells [4]; 100 μM, 48 h) | Cell death by DRAQ7 co-staining (A549 cells [4]; 100 μM/24 h) | Cellular damage by DRAQ7 co-staining (CHO cells [5]) | Photo-induced toxicity (A549 cells [6]) | Staining at the center of the spheroid, at 72 ± 5 μm (HPAC spheroids [3]; 30 μM/24 h) | Spheroid penetration (HPAC spheroids [3]; 30 μM/24 h, 3D reconstruction depth coding) | Spheroid penetration (HPAC spheroids [3]; 100 μM/24 h) | Spheroid viability (HPAC spheroids [7])
O=C(O)c1ccc(-c2cc(-c3ccccn3)nc(-c3ccccn3)c2)cc1.O=C(O)c1ccc(-c2cc(-c3ccccn3)nc(-c3ccccn3)c2)cc1.[Os+2] [[Os(tpybenzCOOH)2]^2+, Os(II) [bis-(4′-(4-carboxyphenyl)-2,2′:6′,2″-terpyridine)]] | completely impermeable | completely impermeable | no spheroid penetration or accumulation was observed | cell membrane impermeable |  |  |  |  |  |  |  |  |  |  |  |  | 
N=C(N)NCCC[C@@H](NC(=O)[C@@H](CCCNC(=N)N)NC(=O)[C@@H](CCCNC(=N)N)NC(=O)[C@@H](CCCNC(=N)N)NC(=O)CCCCCNC(=O)c1ccc(-c2cc(-c3ccccn3)nc(-c3ccccn3)c2)cc1)C(N)=O [[Os-(R4)2]^10+] ({X1-Ahx}-[dR][dR][dR][dR]-NH2) |  |  | throughout cell layers and deep into the spheroid core |  | inhibited | rapidly and efficiently internalized | inhibited | rapidly and efficiently internalized | remained viable | modest cytotoxic effects | no cell death was induced | entry of DRAQ7 (blue) in several cell nuclei | non-photocytotoxic | not observed | spheroid penetration was evident | extensive probe penetration and distribution to the core of the spheroid | no evidence of toxicity

Reference: publication PMC8277133, “Os(II)-Bridged Polyarginine Conjugates: The Additive Effects of Peptides in Promoting or Preventing Permeation in Cells and Multicellular Tumor Spheroids” (Inorganic Chemistry, 2021)
